Results as given in patent publication US9278981B2, “Compounds and compositions for inhibiting the activity of ABL1, ABL2 and BCR-ABL1” (Novartis AG, priority 2012, dated 2016).

Legend:
Ba/F3-BCR-ABL1-WT cells = assay: cells; conditions: Mus musculus, 48 h, read-out: Ba/F3-BCR-ABL1-WT IC50 [μM]
Excerpt: To generate Ba/F3 cells that depend on BCR-ABL1 expression for growth and survival, Ba/F3 cells were engineered to express BCR-ABL1 using retroviral transduction with a MSCV based retroviral vector containing a p210 BCR-ABL1 expression cassette. […] These cells are referred to as Ba/F3-BCR-ABL-WT.
Ba/F3-BCR-ABL1-WT cells and Ba/F3-BCR-ABL1-T315I cells were maintained in RPMI1640 media with L-glutamine, HEPES (Lonza) and 10% FBS (Gibco).
For each cell line, the cell density was adjusted to 50 000 cells/mL and 50 μL (2500 cells) added per well of a 384-well assay plate.
Test compounds were resuspended in DMSO at a concentration of 10 mM. A serial three-fold dilution of each compound with DMSO was performed in 384-well plates using the Janus Liquid Dispenser (PerkinElmer). Compound was delivered to the assay plates containing 2500 cells in a 50 μL volume via Acoustic delivery from an ATS-100 (EDC).
Cells were incubated at 37° C. in a humidified environment with 5% carbon dioxide for 48 hours. Britelite plus solution (Perkin Elmer) was prepared according to the manufacturer's instructions and 25 μL added to each well of the assay plate. […] The degree of luminescence correlates with the number of cells in each well. The effect of each inhibitor concentration can therefore be calculated and IC50 values generated.

ABL1 (64-515) [1] = target: T1, ABL1 (64-515) (Homo sapiens (Human), UniProt P00519); assay: Caliper ABL1 (64-515) assay (microfluidic mobility shift); type: biochemical
Description: Expression and purification of human ABL was performed using standard expression purification procedures. […] The His-ABL was expressed in E. coli BL21 (DE3) and the ABL proteins were isolated by Ni-affinity on a Ni-NTA column (Qiagen). The His-tag was removed by PreScission protease (GE Healthcare) and the non-phosphoprylated ABL further purified on a Mono Q HR 10/10 (GE Healthcare, mono-phosphorylated ABL is about 10-20% of total ABL protein) and HiLoad 16/60 Superdex 200 size exclusion column (GE Healthcare).
All assays were performed in 384-well microtiter plates. Each assay plate contained 8-point serial dilutions for 40 test compounds, as well as four 8-point serial dilutions of staurosporine as a reference compound, plus 16 high and 16 low controls. Liquid handling and incubation steps were done on a Thermo CatX workstation equipped with Innovadyne Nanodrop Express. Between pipetting steps, tips were cleaned in wash cycles using wash buffer.
The assay plates were prepared by addition of 50 nL per well of compound solution in 90% DMSO. […] Plates with terminated kinase reactions were transferred to the Caliper LC3000 workstations for reading. Phosphorylated and unphosphorylated peptides were separated using the Caliper microfluidic mobility shift technology. Briefly, samples from terminated kinase reactions were applied to the chip. Analytes are transported through the chip by constant buffer flow and the migration of the substrate peptide is monitored by the fluorescence signal of its label. Phosphorylated peptide (product) and unphosphorylated peptide (substrate) are separated in an electric field by their charge/mass ratio. Kinase activities were calculated from the amounts of formed phospho-peptide. IC50 values were determined from percent inhibition values at different compound concentrations by non-linear regression analysis.
Test compounds were dissolved in DMSO (10 mM) and transferred into 1.4 mL flat bottom or V-shaped Matrix tubes carrying a unique 2D matrix. The stock solutions were stored at +2° C. if not used immediately. For the test procedure the vials were defrosted and identified by a scanner whereby a working sheet was generated that guided the subsequent working steps.
Compound dilutions were made in 96-well plates. This format enabled the assay of maximally 40 individual test compounds at 8 concentrations (single points) including 4 reference compounds. The dilution protocol included the production of “pre-dilution plates”, “master plates” and “assay plates”.
Polypropylene 96-well plates were used as pre-dilution plates. […] All dilution steps were done on a HamiltonSTAR robot.
These plates were used directly for the assay which was performed in a total volume of 9.05 μL.

ABL1 (64-515) [2] = target: T1, ABL1 (64-515); assay: Radio ABL1 (64-515) assay (radiometric filter-binding); type: biochemical

T1 sequence (P00519 64-515): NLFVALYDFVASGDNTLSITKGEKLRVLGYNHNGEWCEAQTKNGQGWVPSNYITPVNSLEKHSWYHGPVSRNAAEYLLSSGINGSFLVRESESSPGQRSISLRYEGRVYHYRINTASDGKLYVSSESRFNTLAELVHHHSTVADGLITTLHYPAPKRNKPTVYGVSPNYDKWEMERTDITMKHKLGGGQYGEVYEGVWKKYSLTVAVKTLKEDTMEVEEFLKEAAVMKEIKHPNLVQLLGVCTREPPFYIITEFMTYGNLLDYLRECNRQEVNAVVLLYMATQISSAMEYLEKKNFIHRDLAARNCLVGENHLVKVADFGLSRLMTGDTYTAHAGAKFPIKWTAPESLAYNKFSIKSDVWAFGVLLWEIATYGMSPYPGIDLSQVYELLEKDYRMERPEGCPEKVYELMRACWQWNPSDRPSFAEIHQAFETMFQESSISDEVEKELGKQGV

SMILES | IC50 (Ba/F3-BCR-ABL1-WT cells) [µM] | IC50 (ABL1 (64-515) [1]) [nM] | IC50 (ABL1 (64-515) [2]) [nM]
O=C(Nc1ccc(OC(F)(F)Cl)cc1)c1cnc(N2CC[C@@H](O)C2)c(-c2cncnc2)c1 [Example 170, (R)—N-(4-(Chlorodifluoromethoxy)phenyl)-6-(3-hydroxypyrrolidin-1-yl)-5-(pyrimidin-5-yl)nicotinamide] | 0.0005 |  | 
O=C(Nc1ccc(C(F)(F)C(F)(F)F)cc1)c1cnc(N2CC[C@@H](O)C2)c(-c2cncnc2)c1 [Example 208, (R)-6-(3-Hydroxypyrrolidin-1-yl)-N-(4-(perfluoroethyl)phenyl)-5-(pyrimidin-5-yl)nicotinamide] | 0.0039 | 0.6 | < 3
CC(F)(F)Oc1ccc(NC(=O)c2cnc(N3CC[C@@H](O)C3)c(-c3cncnc3)c2)cc1 [Example 215, (R)—N-(4-(1,1-Difluoroethoxy)phenyl)-6-(3-hydroxypyrrolidin-1-yl)-5-(pyrimidin-5-yl)nicotinamide] | 0.0246 | 7.9 | 1.2
O=C(Nc1ccc(S(F)(F)(F)(F)F)cc1)c1cnc(N2CC[C@@H](O)C2)c(-c2cncnc2)c1 [Example 216, (R)-6-(3-Hydroxypyrrolidin-1-yl)-5-(pyrimidin-5-yl)-N-(4-(pentafluorosulfanyl)phenyl)nicotinamide] | 0.0074 | 0.7 | 3
O=C(Nc1ccc(SC(F)(F)Cl)cc1)c1cnc(N2CC[C@@H](O)C2)c(-c2cncc(F)c2)c1 [Example 218, (R)—N-(4-((Chlorodifluoromethyl)thio)phenyl)-5′-fluoro-2-(3-hydroxypyrrolidin-1-yl)-[3,3′-bipyridine]-5-carboxamide] | 0.0009 | 0.6 | 3
N#Cc1ccncc1-c1cc(C(=O)Nc2ccc(OC(F)(F)F)cc2)cnc1N1CC[C@@H](O)C1 [Example 240, (R)-4′-Cyano-2-(3-hydroxypyrrolidin-1-yl)-N-(4-(trifluoromethoxy)phenyl)-[3,3′-bipyridine]-5-carboxamide] |  | 1.4 | 2
Nc1ncc(-c2cc(C(=O)Nc3ccc(OC(F)(F)F)cc3)cnc2N2CC[C@@H](O)C2)cc1F [Example 241, (R)-6′-Amino-5′-fluoro-2-(3-hydroxypyrrolidin-1-yl)-N-(4-(trifluoromethoxy)phenyl)-[3,3′-bipyridine]-5-carboxamide] |  | 1.3 | 1.7
O=C(Nc1ccc(OC(F)(F)F)cc1)c1cnc(N2CC[C@@H](O)C2)c(-c2cc(F)nc(F)c2)c1 [Example 242, (R)-2′,6′-Difluoro-2-(3-hydroxypyrrolidin-1-yl)-N-(4-(trifluoromethoxy)phenyl)-[3,4′-bipyridine]-5-carboxamide] |  | 4.5 | 6
O=C(Nc1ccc(OC(F)(F)Cl)cc1)c1ccc(N2CC[C@@H](O)C2)c(-c2cncnc2)c1 [Example 243, (R)—N-(4-(Chlorodifluoromethoxy)phenyl)-4-(3-hydroxypyrrolidin-1-yl)-3-(pyrimidin-5-yl)benzamide] |  | 0.5 | 1.3
O=C(Nc1ccc(OC(F)(F)Cl)cc1)c1ccc(N2C[C@H](O)[C@@H](O)C2)c(-c2cncnc2)c1 [Example 244, N-(4-(Chlorodifluoromethoxy)phenyl)-4-((3S,4S)-3,4-dihydroxypyrrolidin-1-yl)-3-(pyrimidin-5-yl)benzamide] |  | 0.6 | 1
N[C@H]1CN(c2ccc(C(=O)Nc3ccc(OC(F)(F)Cl)cc3)cc2-c2cncnc2)C[C@@H]1O [Example 245, 4-((3S,4S)-3-Amino-4-hydroxypyrrolidin-1-yl)-N-(4-(chlorodifluoromethoxy)phenyl)-3-(pyrimidin-5-yl)benzamide] |  | 1 | 5
Cc1ncc(-c2cc(C(=O)Nc3ccc(OC(F)(F)Cl)cc3)ccc2N2C[C@H](O)[C@@H](O)C2)cn1 [Example 246, N-(4-(Chlorodifluoromethoxy)phenyl)-4-((3S,4S)-3,4-dihydroxypyrrolidin-1-yl)-3-(2-methylpyrimidin-5-yl)benzamide] |  | 2.2 | 1
O=C(Nc1ccc(OC(F)(F)Cl)cc1)c1cnc(N2CCC(F)(F)C2)c(-c2cncnc2)c1 [Example 247, N-(4-(Chlorodifluoromethoxy)phenyl)-6-(3,3-difluoropyrrolidin-1-yl)-5-(pyrimidin-5-yl)nicotinamide] |  | < 0.13 | 1.9
CN(C)[C@H]1CN(c2ncc(C(=O)Nc3ccc(OC(F)(F)Cl)cc3)cc2-c2cncnc2)C[C@@H]1O [Example 251] |  | 0.7 | < 0.1
NC12CC1CN(c1ncc(C(=O)Nc3ccc(OC(F)(F)Cl)cc3)cc1-c1cncnc1)C2 (centres unmarked) [Example 252] |  | 0.5 | 8.3
N[C@@H]1[C@H]2CN(c3ncc(C(=O)Nc4ccc(OC(F)(F)Cl)cc4)cc3-c3cncnc3)C[C@@H]12 [Example 253] |  | 0.5 | 2
O=C(Nc1ccc(OC(F)(F)Cl)cc1)c1cnc(N2Cc3cn[nH]c3C2)c(-c2cncnc2)c1 [Example 254] |  | 0.6 | < 0.1
N[C@@H]1CCCN(c2ncc(C(=O)Nc3ccc(OC(F)(F)Cl)cc3)cc2-c2cncnc2)C1 [Example 255] |  | 1.1 | 2.1
O=C(Nc1ccc(OC(F)(F)Cl)cc1)c1cnc(N2CCNC3(CC3)C2)c(-c2cncnc2)c1 [Example 256] |  | 0.4 | 2
O=C(Nc1ccc(OC(F)(F)Cl)cc1)c1cnc(N2CC[C@@H](CO)[C@@H](O)C2)c(-c2cncnc2)c1 [Example 257] | 0.0011 | 0.6 | 3
O=C(Nc1ccc(OC(F)(F)Cl)cc1)c1cnc(N2CC(O)C2)c(-c2cncnc2)c1 [Example 258] |  | 1.1 | 2.7

SMILES | IC50 (Ba/F3-BCR-ABL1-WT cells) [µM] | IC50 (ABL1 (64-515) [1]) [nM] | IC50 (ABL1 (64-515) [2]) [nM]
NC1CN(c2ncc(C(=O)Nc3ccc(OC(F)(F)Cl)cc3)cc2-c2cncnc2)C1 [Example 259] |  | < 0.13 | 5.1
O=C(Nc1ccc(OC(F)(F)Cl)cc1)c1cnc(N(CCO)CCO)c(-c2cncnc2)c1 [Example 261] |  | 3.9 | 1.8
Cc1ncc(-c2cc(C(=O)Nc3ccc(OC(F)(F)Cl)cc3)cnc2N2C[C@H](O)[C@@H](O)C2)cn1 [Example 262] |  | 0.7 | 2
Cc1ncncc1-c1cc(C(=O)Nc2ccc(OC(F)(F)Cl)cc2)cnc1N1CC[C@@H](O)C1 [Example 263] |  | < 0.13 | 3
O=C(Nc1ccc(OC(F)(F)Cl)cc1)c1cnc(N2C[C@@H](O)[C@@H](O)C2)c(-c2cncc(F)c2)c1 [Example 264] |  | 0.6 | 1
O=C(Nc1ccc(OC(F)(F)Cl)cc1)c1cnc(N2C[C@H](O)[C@@H](O)C2)c(-c2cncc(F)c2)c1 [Example 265] |  | < 0.13 | 3
N#Cc1cncc(-c2cc(C(=O)Nc3ccc(OC(F)(F)Cl)cc3)cnc2N2C[C@H](O)[C@@H](O)C2)c1 [Example 269] |  | < 0.13 | < 0.1
Cc1ncccc1-c1cc(C(=O)Nc2ccc(OC(F)(F)Cl)cc2)cnc1N1CC[C@@H](O)C1 [Example 270] |  | 0.6 | 2
Nc1ncc(-c2cc(C(=O)Nc3ccc(OC(F)(F)Cl)cc3)cnc2N2CC[C@@H](O)C2)cc1F [Example 271] |  | 0.7 | 0.5
O=C(Nc1ccc(OC(F)(F)Cl)cc1)c1cnc(N2CC[C@@H](O)C2)c(-c2cc(F)cnc2F)c1 [Example 272] |  | 1.1 | 4
O=C(Nc1ccc(OC(F)(F)Cl)cc1)c1cnc(N2CC[C@@H](O)C2)c(-c2cc(F)nc(F)c2)c1 [Example 273] |  | 1.2 | 2
N#Cc1ccncc1-c1cc(C(=O)Nc2ccc(OC(F)(F)Cl)cc2)cnc1N1CC[C@@H](O)C1 [Example 274] |  | 0.4 | < 0.1
CC(F)(F)Oc1ccc(NC(=O)c2cnc(N3CC[C@@H](O)C3)c(-c3cncc(F)c3)c2)cc1 [Example 275] |  | 2.8 | 5
CC(F)(F)Oc1ccc(NC(=O)c2cnc(N3CC[C@@H](O)C3)c(-c3cncc(C#N)c3)c2)cc1 [Example 276] |  | 6.8 | 3
O=C(Nc1ccc(S(F)(F)(F)(F)F)cc1)c1cnc(N2CC[C@@H](O)C2)c(-c2cncc(F)c2)c1 [Example 277] |  | 1.7 | 2
O=C(Nc1ccc(SC(F)(F)F)nc1)c1cnc(N2CC[C@@H](O)C2)c(-c2cncnc2)c1 [Example 279, (R)-6-(3-Hydroxypyrrolidin-1-yl)-5-(pyrimidin-5-yl)-N-(6-((trifluoromethyl)thio)pyridin-3-yl)nicotinamide] |  | 8 | 3
O=C(Nc1ccc(OC(F)(F)Cl)cc1)c1cnc(N2CC[C@@H](O)C2)c(-c2cnccc2F)c1 [Example 280, (R)—N-(4-(Chlorodifluoromethoxy)phenyl)-4′-fluoro-2-(3-hydroxypyrrolidin-1-yl)-[3,3′-bipyridine]-5-carboxamide] |  | 0.3 | 2
N[C@]1(C(F)(F)F)CCN(c2ncc(C(=O)Nc3ccc(OC(F)(F)Cl)cc3)cc2-c2cncnc2)C1 [Example 289, (R)-6-(3-Amino-3-(trifluoromethyl)pyrrolidin-1-yl)-N-(4-(chlorodifluoromethoxy)phenyl)-5-(pyrimidin-5-yl)nicotinamide] |  | 0.7 | 3
N#Cc1ccncc1-c1cc(C(=O)Nc2ccc(OC(F)(F)Cl)cc2)cnc1N1C[C@H](O)[C@@H](O)C1 [Example 290, N-(4-(Chlorodifluoromethoxy)phenyl)-4′-cyano-2-((3S,4S)-3,4-dihydroxypyrrolidin-1-yl)-[3,3′-bipyridine]-5-carboxamide] |  | 0.8 | 2
Cc1ncncc1-c1cc(C(=O)Nc2ccc(OC(F)(F)Cl)cc2)ccc1N1C[C@H](O)[C@@H](O)C1 [Example 297, N-(4-(Chlorodifluoromethoxy)phenyl)-4-((3S,4S)-3,4-dihydroxypyrrolidin-1-yl)-3-(4-methylpyrimidin-5-yl)benzamide] | 0.0013 | 1.4 | 
